This assay concerns the target T1, RzmA-Cs (Mycetohabitans rhizoxinica, UniProt E5ATN9, R148A).
T1 construct: gene RBRH_01504; excised starter condensation (Cs) domain, residues 1-431, pET28a, E. coli BL21(DE3), N-terminal His6 tag removed by thrombin, size-exclusion purified
T1 sequence (E5ATN9 1-431 R148A): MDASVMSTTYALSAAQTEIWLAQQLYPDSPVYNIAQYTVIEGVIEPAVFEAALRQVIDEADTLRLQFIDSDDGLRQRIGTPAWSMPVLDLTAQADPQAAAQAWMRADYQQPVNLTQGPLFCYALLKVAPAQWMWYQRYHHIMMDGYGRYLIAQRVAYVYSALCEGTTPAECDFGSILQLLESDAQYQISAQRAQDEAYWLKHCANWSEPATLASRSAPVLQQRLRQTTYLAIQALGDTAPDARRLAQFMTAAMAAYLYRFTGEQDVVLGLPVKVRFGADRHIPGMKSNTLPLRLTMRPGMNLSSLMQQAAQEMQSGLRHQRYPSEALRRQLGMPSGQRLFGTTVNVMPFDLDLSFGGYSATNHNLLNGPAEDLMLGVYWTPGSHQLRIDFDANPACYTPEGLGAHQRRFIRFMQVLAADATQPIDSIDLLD
Description: isothermal titration calorimetry. It counts as binding.

SMILES strings stand for the structures.

In general, Kd refers to the constant that tells how readily two partners part at equilibrium. A lower Kd goes with tighter binding. `CCCCCCCC(=O)SCCNC(=O)CCNC(=O)[C@H](O)C(C)(C)COP(=O)(O)OP(=O)(O)OC[C@H]1O[C@@H](n2cnc3c(N)ncnc32)[C@H](O)[C@@H]1OP(=O)(O)O` [3d, C8-CoA] returned a Kd of approximately 300 nM.

Source of the values: paper PMC7804268, “Engineering and elucidation of the lipoinitiation process in nonribosomal peptide biosynthesis” (Nature Communications, 2021).
